Assay results taken from patent US20260000729A1, “COMBINATION THERAPIES FOR TREATMENT OF CANCER” (The Regents of the University of Michigan, priority 2022, published 2026).

Columns and labels:
PC3-luc cells [1] = experiment: Intratibial PC3-luc tumor growth in SCID mice, checked weekly by BLI; format: in vivo; settings: BAL 20 mg/kg s.c. twice daily, DOC 5 mg/kg i.p. once a week, weeks 1-4, combination p=0.009
Experimental: Methods: 59 severe combined immunodeficiency (SCID) mice received intratibial injection with PC3-luc cells (2×10^4 cells in 20 ul). Balixafortide (20 mg/kg) (BAL) and vehicle were injected subcutaneously twice daily starting on day one and Docetaxel (5 mg/kg) (DOC) was injected intraperitoneal once a week starting on day one. The tumor growth in mouse tibia was checked weekly by BLI.

PC3-luc cells [2] = experiment: Radiograph of injected tibia at necropsy: bone degradation and percent osteolytic area; format: in vivo, mice; settings: proximal third of tibia, no significant differences among the groups
Experimental: After 30 days, at the time of necropsy, tumor growth in mouse tibia was checked by radiograph and mice were sacrificed, and serum and bone were collected. Serum was kept at −80° C. and tibia were stored in 10% buffered formalin at room temperature for 48 hours before being stored at 4° C.
Radiographic images were imported into SketchandCalc software. The proximal third of the tibia was traced to calculate its area and defined as total area, then osteolytic areas were traced to calculate the total osteolytic area (FIG. 3A) and the percent osteolytic area/bone area was calculated.

Row | Molecule | tumor growth / total tumor burden in mouse tibia (BLI) (PC3-luc cells [1]) | percent osteolytic area/bone area (mean) (PC3-luc cells [2])
1 | CC(=O)O[C@@]12CO[C@@H]1C[C@H](O)[C@@]1(C)C(=O)[C@H](O)C3=C(C)[C@@H](OC(=O)[C@H](O)[C@@H](NC(=O)OC(C)(C)C)c4ccccc4)C[C@@](O)([C@@H](OC(=O)c4ccccc4)[C@H]21)C3(C)C [Docetaxel, (2R,3S)—N-carboxy-3-phenylisoserine,N-tert-butylester, 13 ester with 5ß-20-epoxy-1,2a,4,78,10B,13a-hexahydroxytax-11-en-9-one 4-acetate 2 benzoate] | neither BAL nor DOC impacted tumor growth as sole agents | lower than vehicle or Balixafortide
2 | cyclo(-Tyr-His-Ala-Cys-Ser-Ala-^DPro-Dab-Arg-Tyr-Cys-Tyr-Gln-Lys-^DPro-Pro-) having a disulfide bond between Cys4 and Cys11 [Balixafortide] | neither BAL nor DOC impacted tumor growth as sole agents | no significant differences among the groups
